The NIST ThermoML archive (doi:10.1021/je900757k)
± gives the expanded uncertainty stated by the source.

Test: isobaric coefficient of expansion
Details: Liquid, DSC

CCCCCCCCCCCCC [tridecane]
isobaric coefficient of expansion
Details | 288.15 K | 298.15 K | 308.15 K | 318.15 K | 328.15 K | 338.15 K | 348.15 K
5000 kPa | 0.00088 ± 2.2e-05 1/K | 0.000891 ± 2.2e-05 1/K | 0.000905 ± 2.2e-05 1/K | 0.000919 ± 2.3e-05 1/K | 0.000936 ± 2.3e-05 1/K | 0.000958 ± 2.3e-05 1/K | 0.00098 ± 2.4e-05 1/K
10000 kPa | 0.00086 ± 2.1e-05 1/K | 0.000868 ± 2.1e-05 1/K | 0.00088 ± 2.2e-05 1/K | 0.000892 ± 2.2e-05 1/K | 0.000903 ± 2.2e-05 1/K | 0.000917 ± 2.2e-05 1/K | 0.000935 ± 2.3e-05 1/K
15000 kPa | 0.00084 ± 2.1e-05 1/K | 0.00085 ± 2.1e-05 1/K | 0.000858 ± 2.1e-05 1/K | 0.000865 ± 2.1e-05 1/K | 0.00087 ± 2.1e-05 1/K | 0.000882 ± 2.2e-05 1/K | 0.000896 ± 2.2e-05 1/K
20000 kPa | 0.000827 ± 2e-05 1/K | 0.000828 ± 2e-05 1/K | 0.000835 ± 2e-05 1/K | 0.000838 ± 2.1e-05 1/K | 0.000844 ± 2.1e-05 1/K | 0.000853 ± 2.1e-05 1/K | 0.000863 ± 2.1e-05 1/K
25000 kPa | 0.000811 ± 2e-05 1/K | 0.000812 ± 2e-05 1/K | 0.000814 ± 2e-05 1/K | 0.000818 ± 2e-05 1/K | 0.00082 ± 2e-05 1/K | 0.000827 ± 2e-05 1/K | 0.000833 ± 2e-05 1/K
30000 kPa | 0.000796 ± 1.9e-05 1/K | 0.000799 ± 2e-05 1/K | 0.000796 ± 1.9e-05 1/K | 0.000799 ± 2e-05 1/K | 0.0008 ± 2e-05 1/K | 0.000801 ± 2e-05 1/K | 0.000807 ± 2e-05 1/K
35000 kPa | 0.000777 ± 1.9e-05 1/K | 0.000782 ± 1.9e-05 1/K | 0.000781 ± 1.9e-05 1/K | 0.000781 ± 1.9e-05 1/K | 0.000782 ± 1.9e-05 1/K | 0.000783 ± 1.9e-05 1/K | 0.000784 ± 1.9e-05 1/K
40000 kPa | 0.000772 ± 1.9e-05 1/K | 0.000771 ± 1.9e-05 1/K | 0.000765 ± 1.9e-05 1/K | 0.000763 ± 1.9e-05 1/K | 0.000761 ± 1.9e-05 1/K | 0.000761 ± 1.9e-05 1/K | 0.000756 ± 1.9e-05 1/K
45000 kPa | 0.000754 ± 1.8e-05 1/K | 0.000755 ± 1.8e-05 1/K | 0.00075 ± 1.8e-05 1/K | 0.000748 ± 1.8e-05 1/K | 0.000745 ± 1.8e-05 1/K | 0.000741 ± 1.8e-05 1/K | 0.000741 ± 1.8e-05 1/K
50000 kPa | 0.000744 ± 1.8e-05 1/K | 0.000744 ± 1.8e-05 1/K | 0.000735 ± 1.8e-05 1/K | 0.000734 ± 1.8e-05 1/K | 0.000728 ± 1.8e-05 1/K | 0.000728 ± 1.8e-05 1/K | 0.000723 ± 1.8e-05 1/K
55000 kPa | 0.000722 ± 1.8e-05 1/K | 0.000725 ± 1.8e-05 1/K | 0.000718 ± 1.8e-05 1/K | 0.000718 ± 1.8e-05 1/K | 0.000714 ± 1.7e-05 1/K | 0.000714 ± 1.7e-05 1/K | 0.000709 ± 1.7e-05 1/K

CCCCCCCCCCC [undecane]
isobaric coefficient of expansion
Details | 278.15 K | 288.15 K | 298.15 K | 308.15 K | 318.15 K | 328.15 K | 338.15 K | 348.15 K
5000 kPa | 0.000936 ± 2.3e-05 1/K | 0.000948 ± 2.3e-05 1/K | 0.000965 ± 2.4e-05 1/K | 0.000979 ± 2.4e-05 1/K | 0.000993 ± 2.4e-05 1/K | 0.00101 ± 2.5e-05 1/K | 0.00102 ± 2.5e-05 1/K | 0.00103 ± 2.5e-05 1/K
10000 kPa | 0.000913 ± 2.2e-05 1/K | 0.000924 ± 2.3e-05 1/K | 0.000937 ± 2.3e-05 1/K | 0.00095 ± 2.3e-05 1/K | 0.00096 ± 2.4e-05 1/K | 0.000971 ± 2.4e-05 1/K | 0.000983 ± 2.4e-05 1/K | 0.000991 ± 2.4e-05 1/K
15000 kPa | 0.000893 ± 2.2e-05 1/K | 0.0009 ± 2.2e-05 1/K | 0.000912 ± 2.2e-05 1/K | 0.000921 ± 2.3e-05 1/K | 0.000933 ± 2.3e-05 1/K | 0.00094 ± 2.3e-05 1/K | 0.000946 ± 2.3e-05 1/K | 0.000948 ± 2.3e-05 1/K
20000 kPa | 0.000873 ± 2.1e-05 1/K | 0.000879 ± 2.2e-05 1/K | 0.00089 ± 2.2e-05 1/K | 0.000897 ± 2.2e-05 1/K | 0.000901 ± 2.2e-05 1/K | 0.000909 ± 2.2e-05 1/K | 0.000915 ± 2.2e-05 1/K | 0.000917 ± 2.2e-05 1/K
25000 kPa | 0.000854 ± 2.1e-05 1/K | 0.000856 ± 2.1e-05 1/K | 0.000865 ± 2.1e-05 1/K | 0.00087 ± 2.1e-05 1/K | 0.000874 ± 2.1e-05 1/K | 0.000884 ± 2.2e-05 1/K | 0.000888 ± 2.2e-05 1/K | 0.00089 ± 2.2e-05 1/K
30000 kPa | 0.000836 ± 2e-05 1/K | 0.000843 ± 2.1e-05 1/K | 0.000845 ± 2.1e-05 1/K | 0.000848 ± 2.1e-05 1/K | 0.000851 ± 2.1e-05 1/K | 0.000857 ± 2.1e-05 1/K | 0.00086 ± 2.1e-05 1/K | 0.000859 ± 2.1e-05 1/K
35000 kPa | 0.000819 ± 2e-05 1/K | 0.00082 ± 2e-05 1/K | 0.000825 ± 2e-05 1/K | 0.000828 ± 2e-05 1/K | 0.000829 ± 2e-05 1/K | 0.000833 ± 2e-05 1/K | 0.000834 ± 2e-05 1/K | 0.000833 ± 2e-05 1/K
40000 kPa | 0.000797 ± 2e-05 1/K | 0.000801 ± 2e-05 1/K | 0.000805 ± 2e-05 1/K | 0.000806 ± 2e-05 1/K | 0.000808 ± 2e-05 1/K | 0.000806 ± 2e-05 1/K | 0.00081 ± 2e-05 1/K | 0.00081 ± 2e-05 1/K
45000 kPa | 0.000785 ± 1.9e-05 1/K | 0.000787 ± 1.9e-05 1/K | 0.00079 ± 1.9e-05 1/K | 0.000789 ± 1.9e-05 1/K | 0.000787 ± 1.9e-05 1/K | 0.00079 ± 1.9e-05 1/K | 0.000789 ± 1.9e-05 1/K | 0.000787 ± 1.9e-05 1/K
50000 kPa | 0.000773 ± 1.9e-05 1/K | 0.000773 ± 1.9e-05 1/K | 0.000773 ± 1.9e-05 1/K | 0.000774 ± 1.9e-05 1/K | 0.000775 ± 1.9e-05 1/K | 0.000775 ± 1.9e-05 1/K | 0.000771 ± 1.9e-05 1/K | 0.000769 ± 1.9e-05 1/K
55000 kPa | 0.000765 ± 1.9e-05 1/K | 0.000756 ± 1.9e-05 1/K | 0.000759 ± 1.9e-05 1/K | 0.000759 ± 1.9e-05 1/K | 0.000758 ± 1.9e-05 1/K | 0.000759 ± 1.9e-05 1/K | 0.000754 ± 1.8e-05 1/K | 0.000752 ± 1.8e-05 1/K
